This passage reports IC50 and CC50 results from article PMC9554980, “Antimalarial potential of compounds isolated from Mammea siamensis T. Anders. flowers: in vitro and molecular docking studies” (BMC Complementary Medicine and Therapies, 2022).

What all share (format): cell-based
The test system of data set [1] is chloroquine-resistant P. falciparum (K1) strain. The experiment in a line: In vitro antimalarial activity, pLDH assay. Particulars: Plasmodium falciparum. The procedure: P. falciparum was cultured according to the method of Trager and Jensen with some modifications. The parasites were cultured in noninfected human red blood cells (2% hematocrit) using RPMI 1640 medium that was supplemented with 0.5% Albumax II, 10 µg/ml hypoxanthine, 2.5 µg/ml gentamicin, 4.8 mg/ml HEPES and buffered with 2 mg/ml sodium bicarbonate as described previously in our previous study. All the chemicals and reagents used for culturing were purchased from Sigma–Aldrich, New Delhi, India and Gibco, Waltham, MA USA. The culture was maintained at 37 °C in a CO2 incubator. The culture medium was changed, and Giemsa-stained slides were prepared daily to monitor parasitemia.
The in vitro antimalarial activity of the isolated compounds was assessed on cultured P. falciparum using the Plasmodium lactate dehydrogenase (pLDH) assay described by Makler with some modifications. Briefly, the compounds were individually dissolved in DMSO to obtain a stock solution of 1 mM, and the solution was then diluted to a final working concentration of 0.78–100 µM. […] Parasitized red blood cells (2% hematocrit, 2% parasitemia) were aliquoted into a 96-well cell culture plate, and then the infected red cells were exposed. The tested compound was added to 96-well plates and incubated at 37 °C for 72 h in a CO2 incubator. At the end of incubation, the plates were subjected to three freeze/thaw cycles (frozen at -20 °C and thawed at 37 °C) for complete hemolysis. The lysed cells were transferred to a new 96-well plate that contained a mixture of 100 µl of Malstat reagent and 20 µl of nitroblue tetrazolium/phenazine ethosulfate solution (Calbiochem®, Sigma–Aldrich, New Delhi, India) and were incubated for 1 h in the dark. The experiments were performed in triplicate. These solutions were used to determine the activity of the lactate dehydrogenase (LDH) enzyme in the cultures. When LDH was present, a purple product was formed, and the optical density was measured using a microplate reader at a wavelength of 650 nm. The concentrations at which 50% inhibition of parasite growth (IC50) was calculated using a nonlinear regression curve contained in GraphPad PRISM version 6 (GraphPad Software, Inc., La Jolla, CA, USA).

A short description of data set [2]: In vitro cytotoxicity, MTT assay, Vero cells. Particulars: African green monkey, 5 to 80 µM, read-out: CC50 Vero cell. How it is done:
(§1) The toxicity of isolated compounds was assessed by a 3-(4,5-dimethythiazol2-yl)-2,5-diphenyl tetrazolium bromide (MTT) assay according to a previous method. Briefly, Vero cells, a normal mammalian cell line or HepG2 human hepatoma cell line, were seeded into 96-well plates (10^4 cell/ml) and incubated for 24 h at 37 °C with 5% CO2. Cells were then treated with various concentrations of the tested compounds ranging from 5 to 80 µM, and the final concentration of DMSO in the tested dilutions was not higher than 1% for 48 h at 37 °C with 5% CO2. Subsequently, MTT solution was added to each well, and the plate was incubated for 2 h in a CO2 incubator. The medium was then removed, and 100 µl of DMSO was added to each well. The negative control was performed using growth medium alone instead of the tested compounds, while doxorubicin (Sigma–Aldrich, New Delhi, India) was used as the positive toxic control. The assay was performed in triplicates. Finally, the optical density was determined using a microplate reader at a wavelength of 590 nm. The 50% cytotoxic concentration (CC50) was calculated using a nonlinear regression curve contained in GraphPad PRISM version 6 (GraphPad Software, Inc., La Jolla, CA, USA).

A short description of data set [3]: In vitro cytotoxicity, MTT assay, HepG2 cells. As to conditions: human, 5 to 80 µM. The procedure: as §1
A general note: Tetrazolium dyes change colour on reduction, which living cells bring about.

[4] abbreviates: P. falciparum K1, pLDH assay, 72 h, mean ± S.D. of three determinations, read-out: IC50 K1.

Where two headings read alike, the source gives them in different places.

In general, IC50 refers to the concentration needed to halve the response being measured. In the case of `C[C@H]1[C@H](OC(=O)CCC(=O)O)O[C@@H]2O[C@@]3(C)CC[C@H]4[C@H](C)CC[C@@H]1[C@@]24OO3` [Artesunate, reference compound], the IC50 in data set [1] (P. falciparum K1, pLDH assay, 72 h, positive control, IC50 unit expressed in nM (footnote), read-out: IC50 K1 (positive control)) stood at 0.53 ± 0.04 nM.
For orientation: CC50 means the concentration that lowers cell viability or growth by half. As to `C=C(C)[C@@H]1CC[C@]2(C)CC[C@]3(C)[C@H](CC[C@@H]4[C@@]5(C)CC[C@H](O)C(C)(C)[C@@H]5CC[C@]43C)[C@@H]12` [Compound 1, lupeol], the IC50 in data set [1] (setting [4]) turned out to be 18800 ± 3450 nM. Also, the CC50 at 48 h in data set [2] (Vero cells) was > 80 µM; in data set [3] (HepG2 cells), 29.3 ± 1.47 µM.
In the same order, the values of `COc1ccc2c(=O)c3cccc(O)c3oc2c1O` [Compound 2, 4,5-dihydroxy-3-methoxyxanthone] are 21000 ± 3560 nM, > 80 µM and > 80 µM.
Take `O=c1c2ccccc2oc2c(O)cccc12` [Compound 3, 4-hydroxyxanthone]: the IC50 in data set [1] (K1, 72 h, read-out: IC50 K1) is 68600 ± 2540 nM. In addition, the CC50 at 48 h in data set [2] turned out to be 48.1 ± 1.68 µM; in data set [3] it was 46.1 ± 1.66 µM.
Regarding `O=c1c2cc(O)ccc2oc2cccc(O)c12` [Compound 4, 1,7-dihydroxyxanthone], the IC50 in data set [1] (K1, 72 h, read-out: IC50 K1) turned out to be 41700 ± 2230 nM. In addition, the values for the CC50 at 48 h in data set [2] (Vero cells) and in data set [3] (HepG2 cells) were 7.9 ± 0.9 µM and 13.3 ± 1.12 µM, respectively.
Take `CC(C)CC(=O)c1c2c(c3oc(=O)cc(-c4ccccc4)c3c1O)C=CC(C)(C)O2` [Compound 6, mammea A/AA cyclo D]: in data set [1] (setting [4]), the IC50 came to 45600 ± 3120 nM. The CC50 at 48 h in data set [2] (Vero cells) and in data set [3] (HepG2 cells) was > 80 µM in each case.
Turning to `CC(C)CC(=O)c1c2c(c3oc(=O)cc(-c4ccccc4)c3c1O)C[C@H](C(C)(C)O)O2` [Compound 7, mammea A/AA cyclo F], the IC50 in data set [1] (setting [4]) was found to be 49890 ± 420 nM. Besides, the CC50 at 48 h in data set [2] (Vero cells) and in data set [3] (HepG2 cells) was > 80 µM in each case.
Take `O=c1c2ccc(O)cc2oc2cccc(O)c12` [Compound 8, 1,6-dihydroxyxanthone]: in data set [1] (setting [4]), the half-maximal inhibitory concentration (IC50) worked out at 47900 ± 5160 nM. The CC50 at 48 h in data set [2] and in data set [3] was > 80 µM throughout.
Take `COc1cc2c(=O)c3c(O)cccc3oc2c(OC)c1OC` [Compound 9, 1-hydroxy-5,6,7-trimethoxyxanthone]: the IC50 in data set [1] (setting [4]) turned out to be 9570 ± 1590 nM. Also, the CC50 at 48 h in data set [2] (Vero cells) and in data set [3] (HepG2 cells) was > 80 µM each time.
As to `O=c1c2cccc(O)c2oc2c(O)c(O)ccc12` [Compound 10, 3,4,5-trihydroxyxanthone], the IC50 in data set [1] (setting [4]) is 15500 ± 2630 nM. For the same compound, the CC50 at 48 h in data set [2] (Vero cells) and in data set [3] (HepG2 cells) was > 80 µM each time.
In the case of `COc1cccc2oc3c(O)cccc3c(=O)c12` [Compound 11, 5-hydroxy-1-methoxyxanthone], the IC50 in data set [1] (setting [4]) stood at 29300 ± 4440 nM. For the same compound, the half-maximal cytotoxic concentration (CC50) at 48 h in data set [2] (Vero cells) and in data set [3] (HepG2 cells) was > 80 µM each time.
On to `O=c1c2ccccc2oc2ccc(O)cc12` [Compound 12, 2-hydroxyxanthone], for which the IC50 in data set [1] (K1, 72 h, read-out: IC50 K1) stood at 75000 ± 880 nM. In addition, the CC50 at 48 h in data set [2] and in data set [3] was > 80 µM each time.
Turning to `COc1ccc2c(=O)c3c(O)cccc3oc2c1O` [Compound 13, 1,5-dihydroxy-6-methoxyxanthone], in data set [1] (setting [4]), the IC50 came to 22300 ± 1670 nM. For the same compound, the CC50 at 48 h in data set [2] (Vero cells) is > 80 µM; in data set [3] (HepG2 cells), 30.5 ± 1.49 µM.
Regarding `COc1cccc2c1C(=O)c1c(O)c3c(c(O)c1C2=O)C[C@@](O)(C(=O)CO)C[C@@H]3O[C@H]1C[C@H](N)[C@H](O)[C@H](C)O1` [Doxorubicin, reference compound], the CC50 at 48 h in data set [2] (Vero cells) amounted to 1.46 ± 0.16 µM; in data set [3] (HepG2 cells), 1.11 ± 0.05 µM.
